Results taken from ChEMBL document CHEMBL3272309, “Potential central nervous system antitumor agents. Aziridinylbenzoquinones. 1” (J Med Chem, 1976).
Values after ≈ are worked out from the molar mass of the structure shown.

Tests used:
P388 [1] = test: Antitumor activity against mouse P388 cells allografted in mouse assessed as change in body weight at 3.12 mg/kg, ip qd administered from day 1 to 9 post ip tumor-implantation measured on day 5 relative to control; format: functional; conditions: route intraperitoneal
B16 [2] = test: Antitumor activity against mouse B16 cells allografted in mouse assessed as change in body weight at 3.12 mg/kg, ip qd administered from day 1 to 9 post ip tumor-implantation measured on day 5 relative to control; format: functional; conditions: route intraperitoneal
P388 [3] = test: Antitumor activity against mouse P388 cells allografted in mouse assessed as change in body weight at 1.56 mg/kg, ip qd administered from day 1 to 9 post ip tumor-implantation measured on day 5 relative to control; format: functional; conditions: route intraperitoneal
P388 [4] = test: Antitumor activity against mouse P388 cells allografted in mouse assessed as mouse survival at 0.39 mg/kg, ip qd administered from day 1 to 9 post intracerebral tumor-implantation relative to control; format: functional; conditions: route intraperitoneal
[5] = Antitumor activity against mouse ependymoblastoma cells allografted in mouse assessed as change in body weight at 1 mg/kg, ip qd administered from day 1 to 5 post intracerebral tumor-implantation measured on day 5 relative to control; format: functional; conditions: route intraperitoneal
P388 [6] = test: Antitumor activity against mouse P388 cells allografted in mouse assessed as change in body weight at 6.25 mg/kg, ip qd administered from day 1 to 9 post intracerebral tumor-implantation measured on day 5 relative to control; format: functional; conditions: route intraperitoneal
[7] = Antitumor activity against mouse ependymoblastoma cells allografted in mouse assessed as change in body weight at 0.25 mg/kg, ip qd administered from day 1 to 5 post intracerebral tumor-implantation measured on day 5 relative to control; format: functional; conditions: route intraperitoneal
L1210 [8] = test: Antitumor activity against mouse L1210 cells allografted in mouse assessed as change in body weight at 3.12 mg/kg, ip qd administered from day 1 to 9 post ip tumor-implantation measured on day 5 relative to control; format: functional; conditions: route intraperitoneal
Mus musculus [9] = test: Toxicity in mouse allografted with mouse P388 cells at 6.25 mg/kg, ip qd administered from day 1 to 9 post ip tumor-implantation; format: organism-based; parameters: dose 6.25 mg/kg, route intraperitoneal; conditions: in vivo
[10] = test system: Lewis lung carcinoma cell line; test: Antitumor activity against mouse LLC cells allografted in mouse assessed as change in body weight at 4 mg/kg, ip qd administered from day 5 to 15 post sc tumor-implantation measured on day 5 relative to control; format: functional; conditions: route subcutaneous
P388 [11] = test: Antitumor activity against mouse P388 cells allografted in mouse assessed as mouse survival at 1.56 mg/kg, ip qd administered from day 1 to 9 post intracerebral tumor-implantation relative to control; format: functional; conditions: route intraperitoneal
L1210 [12] = test: Antitumor activity against mouse L1210 cells allografted in mouse assessed as mouse survival at 4.6 mg/kg, ip qd administered from day 1 to 9 post ip tumor-implantation relative to control; format: functional; conditions: route intraperitoneal
L1210 [13] = test: Antitumor activity against mouse L1210 cells allografted in mouse assessed as change in body weight at 0.78 mg/kg, ip qd administered from day 1 to 9 post intracerebral tumor-implantation measured on day 5 relative to control; format: functional; conditions: route intraperitoneal
[14] = test system: Lewis lung carcinoma cell line; test: Antitumor activity against mouse LLC cells allografted in mouse assessed as mouse survival at 1 mg/kg, ip qd administered from day 5 to 15 post sc tumor-implantation relative to control; format: functional; conditions: route subcutaneous
Mus musculus [15] = test: Toxicity in mouse allografted with mouse ependymoblastoma cells at 4 mg/kg, ip qd administered from day 1 to 5 post intracerebral tumor-implantation; format: organism-based; parameters: dose 4 mg/kg, route intraperitoneal; conditions: in vivo
L1210 [16] = test: Antitumor activity against mouse L1210 cells allografted in mouse assessed as mouse survival at 6.25 mg/kg, ip qd administered from day 1 to 9 post intracerebral tumor-implantation relative to control; format: functional; conditions: route intraperitoneal
[17] = Aqueous solubility of the compound; format: physicochemical
[18] = test system: Lewis lung carcinoma cell line; test: Antitumor activity against mouse LLC cells allografted in mouse assessed as change in body weight at 1 mg/kg, ip qd administered from day 5 to 15 post sc tumor-implantation measured on day 5 relative to control; format: functional; conditions: route subcutaneous
L1210 [19] = test: Antitumor activity against mouse L1210 cells allografted in mouse assessed as change in body weight at 6.25 mg/kg, ip qd administered from day 1 to 9 post intracerebral tumor-implantation measured on day 5 relative to control; format: functional; conditions: route intraperitoneal
L1210 [20] = test: Antitumor activity against mouse L1210 cells allografted in mouse assessed as change in body weight at 2 mg/kg, ip qd administered from day 1 to 9 post ip tumor-implantation measured on day 5 relative to control; format: functional; conditions: route intraperitoneal
L1210 [21] = test: Antitumor activity against mouse L1210 cells allografted in mouse assessed as mouse survival at 0.88 mg/kg, ip qd administered from day 1 to 9 post ip tumor-implantation relative to control; format: functional; conditions: route intraperitoneal
[22] = Antitumor activity against mouse ependymoblastoma cells allografted in mouse assessed as change in body weight at 2 mg/kg, ip qd administered from day 1 to 5 post intracerebral tumor-implantation measured on day 5 relative to control; format: functional; conditions: route intraperitoneal
P388 [23] = test: Antitumor activity against mouse P388 cells allografted in mouse assessed as mouse survival at 0.78 mg/kg, ip qd administered from day 1 to 9 post intracerebral tumor-implantation relative to control; format: functional; conditions: route intraperitoneal
B16 [24] = test: Antitumor activity against mouse B16 cells allografted in mouse assessed as mouse survival at 0.78 mg/kg, ip qd administered from day 1 to 9 post ip tumor-implantation relative to control; format: functional; conditions: route intraperitoneal
[25] = Therapeutic ratio in ip dosed mouse allografted with mouse ependymoblastoma cells; format: ADME, organism-based; conditions: in vivo, read-out: TI
P388 [26] = test: Antitumor activity against mouse P388 cells allografted in mouse assessed as mouse survival at 1.56 mg/kg, ip qd administered from day 1 to 9 post ip tumor-implantation relative to control; format: functional; conditions: route intraperitoneal
L1210 [27] = test: Antitumor activity against mouse L1210 cells allografted in mouse assessed as mouse survival at 3.12 mg/kg, ip qd administered from day 1 to 9 post intracerebral tumor-implantation relative to control; format: functional; conditions: route intraperitoneal
L1210 [28] = test: Antitumor activity against mouse L1210 cells allografted in mouse assessed as mouse survival at 1.56 mg/kg, ip qd administered from day 1 to 9 post intracerebral tumor-implantation relative to control; format: functional; conditions: route intraperitoneal
B16 [29] = test: Antitumor activity against mouse B16 cells allografted in mouse assessed as change in body weight at 6.25 mg/kg, ip qd administered from day 1 to 9 post ip tumor-implantation measured on day 5 relative to control; format: functional; conditions: route intraperitoneal
L1210 [30] = test: Antitumor activity against mouse L1210 cells allografted in mouse assessed as mouse survival at 6.25 mg/kg, ip qd administered from day 1 to 9 post ip tumor-implantation relative to control; format: functional; conditions: route intraperitoneal
P388 [31] = test: Antitumor activity against mouse P388 cells allografted in mouse assessed as change in body weight at 0.78 mg/kg, ip qd administered from day 1 to 9 post ip tumor-implantation measured on day 5 relative to control; format: functional; conditions: route intraperitoneal
[32] = Antitumor activity against mouse ependymoblastoma cells allografted in mouse assessed as change in body weight at 0.5 mg/kg, ip qd administered from day 1 to 5 post intracerebral tumor-implantation measured on day 5 relative to control; format: functional; conditions: route intraperitoneal
L1210 [33] = test: Antitumor activity against mouse L1210 cells allografted in mouse assessed as mouse survival at 3.12 mg/kg, ip qd administered from day 1 to 9 post ip tumor-implantation relative to control; format: functional; conditions: route intraperitoneal

CCOC(=O)NC1=C(N2CC2)C(=O)C(NC(=O)OCC)=C(N2CC2)C1=O [DIAZIQUONE]
Activity (P388 [1]): -4.1 g | Activity (B16 [2]): -2.7 g | Activity (P388 [3]): -4 g | T/C (P388 [4]): 102% | Activity [5]: -2.1 g | Activity (P388 [6]): -2.8 g | Activity [7]: -1.5 g | Activity (L1210 [8]): -4.1 g | Activity (Mus musculus [9]): Toxic | Activity [10]: -0.1 g | T/C (P388 [11]): 137% | T/C (L1210 [12]): 98% | Activity (L1210 [13]): -0.5 g | T/C [14]: 89% | Activity (Mus musculus [15]): Toxic | T/C (L1210 [16]): 103% | solubility [17]: 500 µg/mL (≈ 1370 µM) | Activity [18]: -0.1 g | Activity (L1210 [19]): -2.8 g | Activity (L1210 [20]): -3.8 g | T/C (L1210 [21]): 132% | Activity [22]: -2.7 g | T/C (P388 [23]): 125% | T/C (B16 [24]): 113% | selectivity ratio [25]: 4 | T/C (P388 [26]): 212% | T/C (L1210 [27]): 179% | T/C (L1210 [28]): 146% | Activity (B16 [29]): -4.4 g | T/C (L1210 [30]): 127% | Activity (P388 [31]): -2.4 g | Activity [32]: -1.8 g | T/C (L1210 [33]): 128%
